The subject of one test is Salmonella enteritidis. The test can be described thus: Antibacterial activity against Salmonella enteritidis after 24 hrs by serial broth dilution test. It is filed as functional, Salmonella enterica subsp. enterica serovar Enteritidis. The note with it: Salmonella enterica. In general terms: Broth dilution looks for growth in wells or tubes with falling amounts of substance.

The test system of a further test is Escherichia coli. Briefly: Antibacterial activity against Escherichia coli IFO 026 after 24 hrs by serial broth dilution test. Type of test: functional. Conditions: IFO 026, 24 h.
Another test deals with Bacillus subtilis. Briefly: Antibacterial activity against Bacillus subtilis after 24 hrs by serial broth dilution test. It is filed as functional.
For another test, the system named is Candida albicans. The test can be described thus: Antifungal activity against Candida albicans IFO 1061 after 48 hrs by serial broth dilution test. Type of test: functional. The note with it: IFO 1061, 48 h.
For the next test, the system named is Staphylococcus aureus. Briefly: Antibacterial activity against Staphylococcus aureus after 24 hrs by serial broth dilution test. Type of test: functional.

By MIC is commonly meant the lowest concentration found to suppress growth. A low value points to a more susceptible organism. For `CCc1c2c(OC)c(OC)cc(Br)c2cc2[n+]1CCc1cc3c(cc1-2)OCO3.[Cl-]`, the MIC with Salmonella enteritidis amounted to 31.2 µg/mL; against Escherichia coli, 500 µg/mL; against Bacillus subtilis, 31.2 µg/mL; against Candida albicans, 250 µg/mL; in the test on Staphylococcus aureus, 31.2 µg/mL.

Regarding `COc1cc(Br)c2cc3[n+](cc2c1OC)CCc1cc2c(cc1-3)OCO2.[Cl-]`, the MIC with Salmonella enteritidis is 125 µg/mL; against Escherichia coli, > 500 µg/mL; with Bacillus subtilis, 125 µg/mL; with Candida albicans it was 500 µg/mL; against Staphylococcus aureus, 125 µg/mL.

Turning to `CCCc1c2c(OC)c(OC)cc(Br)c2cc2[n+]1CCc1cc3c(cc1-2)OCO3.[Cl-]`, the MIC was determined as 15.6 µg/mL in the test on Salmonella enteritidis; 500 µg/mL in the test with Escherichia coli; 15.6 µg/mL with Bacillus subtilis; 125 µg/mL in the test with Candida albicans; 15.6 µg/mL against Staphylococcus aureus.

With `CCc1c2c(OC)c(OC)ccc2cc2[n+]1CCc1cc3c(cc1-2)OCO3.[Cl-]`, the minimum inhibitory concentration (MIC) against Salmonella enteritidis is 62.5 µg/mL; in the test with Escherichia coli it was > 500 µg/mL; with Bacillus subtilis, 125 µg/mL; against Candida albicans it was 125 µg/mL; against Staphylococcus aureus, 62.5 µg/mL.

`COc1cc(Br)c2cc3[n+](c(-c4ccccc4)c2c1OC)CCc1cc2c(cc1-3)OCO2.[Cl-]`: the MIC against Salmonella enteritidis was 31.2 µg/mL; in the test on Escherichia coli, 500 µg/mL; with Bacillus subtilis, 31.2 µg/mL; with Candida albicans, 250 µg/mL; in the test with Staphylococcus aureus, 31.2 µg/mL.

As to `CCCc1c2c(OC)c(OC)ccc2cc2[n+]1CCc1cc3c(cc1-2)OCO3.[Cl-]`, the MIC in the test with Salmonella enteritidis is 31.2 µg/mL; with Escherichia coli it was 500 µg/mL; against Bacillus subtilis, 62.5 µg/mL; against Candida albicans, 250 µg/mL; in the test on Staphylococcus aureus, 31.2 µg/mL.

Consider `CCCCc1c2c(OC)c(OC)cc(Br)c2cc2[n+]1CCc1cc3c(cc1-2)OCO3.[Cl-]`, for which the MIC was 15.6 µg/mL with Salmonella enteritidis; 250 µg/mL against Escherichia coli; 7.8 µg/mL in the test on Bacillus subtilis; 62.5 µg/mL in the test on Candida albicans; 7.8 µg/mL in the test on Staphylococcus aureus.

Consider `CCCCCCc1c2c(OC)c(OC)cc(Br)c2cc2[n+]1CCc1cc3c(cc1-2)OCO3.[Cl-]`, for which the MIC stood at 3.9 µg/mL against Salmonella enteritidis; 125 µg/mL in the test with Escherichia coli; 3.9 µg/mL with Bacillus subtilis; 15.6 µg/mL with Candida albicans; 3.9 µg/mL in the test on Staphylococcus aureus.

For the compound `COc1ccc2cc3[n+](c(-c4ccccc4)c2c1OC)CCc1cc2c(cc1-3)OCO2.[Cl-]`, the MIC was 125 µg/mL with Salmonella enteritidis; > 500 µg/mL in the test with Escherichia coli; 62.5 µg/mL with Bacillus subtilis; 250 µg/mL in the test on Candida albicans; 62.5 µg/mL in the test on Staphylococcus aureus.

Regarding `COc1ccc2cc3[n+](c(C)c2c1OC)CCc1cc2c(cc1-3)OCO2.[Cl-]`, the MIC is 125 µg/mL in the test on Salmonella enteritidis; > 500 µg/mL in the test on Escherichia coli; 250 µg/mL with Bacillus subtilis; 250 µg/mL in the test with Candida albicans; 125 µg/mL against Staphylococcus aureus.

As for `CCCCc1c2c(OC)c(OC)ccc2cc2[n+]1CCc1cc3c(cc1-2)OCO3.[Cl-]`, the MIC is 31.2 µg/mL in the test with Salmonella enteritidis; 500 µg/mL with Escherichia coli; 31.2 µg/mL in the test on Bacillus subtilis; 250 µg/mL against Candida albicans; 15.6 µg/mL in the test on Staphylococcus aureus.

On to `COc1ccc2cc3[n+](cc2c1OC)CCc1cc2c(cc1-3)OCO2.[Cl-]` [BERBERINE CHLORIDE], for which the MIC in the test on Salmonella enteritidis is 500 µg/mL; with Escherichia coli, > 2000 µg/mL; against Bacillus subtilis it was 1000 µg/mL; in the test on Candida albicans, 500 µg/mL; against Staphylococcus aureus, 250 µg/mL.

In the case of `NC[C@H]1O[C@H](O[C@H]2[C@H](O)[C@@H](O[C@H]3O[C@H](CO)[C@@H](O)[C@H](N)[C@H]3O)[C@H](N)C[C@@H]2N)[C@H](O)[C@@H](O)[C@@H]1O.O=S(=O)(O)O` [KANAMYCIN SULFATE], the MIC in the test on Salmonella enteritidis is 62.5 µg/mL; against Escherichia coli, 31.2 µg/mL; against Bacillus subtilis it was 3.9 µg/mL; in the test with Candida albicans, > 2000 µg/mL; against Staphylococcus aureus, 31.2 µg/mL.

Source of the values: ChEMBL document CHEMBL1150950, “Antimicrobial activity of 8-alkyl- and 8-phenyl-substituted berberines and their 12-bromo derivatives” (1998).
